Assay results published in patent US8158806B2, “DAT1” (Department of Biotechnology, priority 2004, dated 2012).
pIC50: −log10 of the molar value. Where two headings read alike, the source gives them in different places.

Columns and labels:
[1] = test system: CaSki; experiment: MTT cell viability assay, CaSki; type: cell-based; conditions: Ca-Ski, CaSki (Human cervix), 48 hours, average of three experiments, read-out: IC50 values (growth inhibition constants)
Method: (§1) The compound DAT1 was tested for its cytotoxicity on human cervical, uterus and colon cancer cell lines and mouse fibrocercoma cells. Cell lines were obtained from ATCC, USA and NCCS, Pune, India. MTT assay, which correlates a fomazan dye formation wife the number of viable cells, was used for this purpose.
(§2) • 3. Cell Viability Assay: MTT assay was used to determine fee number of viable cells upon drug addition. Cells were seeded in microtitre plates (generally 5×10^3 cells per well) and were incubated with different concentrations of the cytotoxic agents for 48 h. Subsequently, 100 μl of MTT solution (0.6 mg/ml) was added per well and incubated at 37° C. for additional 2 h. The amount of formazan salt was quantified in quadruplicates by recording fee absorbance at 570 ran using a Biorad Plate reader. The growth inhibition constants (IC50) were calculated from the semi logarithmic dose response plots using fee nonlinear regression program Origin. […] Polymerization assay: MTP polymerization, in fee presence or absence of DAT1, was measured by the time course of fee turbidity at 37° at 345 nm. […] Tubulin binding: Emission spectra of DAT1 in presence of tubulin were recorded from 400 nm to 600 nm using an excitation wavelength of 374 nm. Excitation and emission bandpasses are 2.5 nm each and the fluorescence values recorded are uncorrected. […]

[2] = test system: IMR 90 (lung epithelial); experiment: Cell survival in normal immortalized cell line; type: cell-based; conditions: concentration much more than the IC50 values in the cancer cell lines; data not shown
From the text: The cell survival in fee normal immortalized cell line IMR 90 (lung epithelial) was good after fee treatment of DAT1 in a concentration which was much more than the IC50 values in all fee cancer cell lines tested. In comparison, fee cell survival was less upon vinblastine treatment and similar upon paclitaxel treatment in similar concentrations (data not shown).

[3] = test system: HeLa; experiment: MTT cell viability assay, HeLa; type: cell-based; conditions: HeLa (Human cervix), 48 hours, average of three experiments, read-out: IC50 values (growth inhibition constants)
Method: as §1
(§3) • 3. Cell Viability Assay: MTT assay was used to determine fee number of viable cells upon drug addition. Cells were seeded in microtitre plates (generally 5×10^3 cells per well) and were incubated with different concentrations of the cytotoxic agents for 48 h. Subsequently, 100 μl of MTT solution (0.6 mg/ml) was added per well and incubated at 37° C. for additional 2 h. The amount of formazan salt was quantified in quadruplicates by recording fee absorbance at 570 ran using a Biorad Plate reader. The growth inhibition constants (IC50) were calculated from the semi logarithmic dose response plots using fee nonlinear regression program Origin. All the experiments were done for at least three times. • 4. Microtubule and Tubulin Preparation: Microtubular protein was prepared from goat brains by two cycles of temperature dependent assembly-disassembly process in PEM buffer (100 mM PIPES, pH 6.9, 1 mM MgCl2 & 1 mM EGTA ) with 1 mM GTP at 37° C. For fee polymerization experiments, it was followed by one more cycle in PEM. Tubulin was purified from 2X MTP using glutamate buffer for assembly. • 5. Polymerization assay: MTP polymerization, in fee presence or absence of DAT1, was measured by the time course of fee turbidity at 37° at 345 nm. A Shimadzu UV-1601 double beam spectrophotometer fitted with a temperature-controlled circulating water bath was used for this purpose. • 6. […] Tubulin binding: Emission spectra of DAT1 in presence of tubulin were recorded from 400 nm to 600 nm using an excitation wavelength of 374 nm. Excitation and emission bandpasses are 2.5 nm each and the fluorescence values recorded are uncorrected. All fluorescence measurements were performed in a Perkin-Elmer model LS50B Luminescence spectrometer.

[4] = test system: human cervical, uterus and colon cancer cell lines and mouse fibrocercoma cells; experiment: MTT cytotoxicity, panel of cancer cell lines (summary); type: cell-based; conditions: read-out: IC50 values, range
Method: as §1, §2

[5] = test system: HCT 116; experiment: MTT cell viability assay, HCT 116; type: cell-based; conditions: HCT 116 (Human colon), 48 hours, average of three experiments, read-out: IC50 values (growth inhibition constants)
Method: as §1, §3

[6] = test system: SiHa; experiment: MTT cell viability assay, SiHa; type: cell-based; conditions: SiHa (Human cervix), 48 hours, average of three experiments, read-out: IC50 values (growth inhibition constants)
Method: as §1, §2

[7] = test system: MES-SA/Dx5; experiment: MTT cell viability assay, multidrug resistant MES-SA/Dx5; type: cell-based, Human; conditions: for pIC50: MES-SA/Dx5 (Human uterus), multidrug resistant, 48 hours, MTT, average of three experiments, read-out: IC50 values (growth inhibition constants)
Method: as §1
• 3. Cell Viability Assay: MTT assay was used to determine fee number of viable cells upon drug addition. Cells were seeded in microtitre plates (generally 5×10^3 cells per well) and were incubated with different concentrations of the cytotoxic agents for 48 h. Subsequently, 100 μl of MTT solution (0.6 mg/ml) was added per well and incubated at 37° C. for additional 2 h. The amount of formazan salt was quantified in quadruplicates by recording fee absorbance at 570 ran using a Biorad Plate reader. The growth inhibition constants (IC50) were calculated from the semi logarithmic dose response plots using fee nonlinear regression program Origin. All the experiments were done for at least three times. • 4. Microtubule and Tubulin Preparation: Microtubular protein was prepared from goat brains by two cycles of temperature dependent assembly-disassembly process in PEM buffer (100 mM PIPES, pH 6.9, 1 mM MgCl2 & 1 mM EGTA ) with 1 mM GTP at 37° C. For fee polymerization experiments, it was followed by one more cycle in PEM. Tubulin was purified from 2X MTP using glutamate buffer for assembly. • 5. Polymerization assay: MTP polymerization, in fee presence or absence of DAT1, was measured by the time course of fee turbidity at 37° at 345 nm. A Shimadzu UV-1601 double beam spectrophotometer fitted with a temperature-controlled circulating water bath was used for this purpose. • 6. Immunofluorescence assay: HeLa cells were incubated with the drug for 24 h at 37° C., washed with PBS and fixed with 4% paraformaldehyde at 4° C. Subsequently, they were washed and permeabilized with 0.2% Triton X-100 in PBS for 20 min at 37° C. […] Tubulin binding: Emission spectra of DAT1 in presence of tubulin were recorded from 400 nm to 600 nm using an excitation wavelength of 374 nm. Excitation and emission bandpasses are 2.5 nm each and the fluorescence values recorded are uncorrected. All fluorescence measurements were performed in a Perkin-Elmer model LS50B Luminescence spectrometer.

[8] = test system: SW 620; experiment: MTT cell viability assay, SW 620; type: cell-based; conditions: SW 620 (Human colon), 48 hours, average of three experiments, read-out: IC50 values (growth inhibition constants)
Method: as §1, §3

[9] = test system: L-929; experiment: MTT cell viability assay, L-929; type: cell-based; conditions: L929, L-929 (Mouse connective tissue), 48 hours, average of three experiments, read-out: IC50 values (growth inhibition constants)
Method: as §1, §2

[10] = multidrug resistant cell line MES-SA/DX5

pIC50 [3]	pIC50 [5]	SMILES	pIC50 [1]	cell survival after treatment [2]	pIC50 ([4]; in 2 cell lines)	pIC50 ([4]; in 5 out of the 9 cell lines tested)	pIC50 [6]	pIC50 [7]	times more active than paclitaxel [7, 10] [times]	times more active than vinblastine [7, 10] [times]	pIC50 [8]	pIC50 [9]
7.27	6.52	COc1ccc(Nc2nc(N)c(C(=O)c3ccccc3)s2)cc1 [DAT1, Diaminoketothiazole]	6.70	good	5.30 to 6.00	6.52 to 7.30	5.30	6.46	15	2	6.70	6.00
7.47	7.92	CC(=O)O[C@H]1C(=O)[C@@]2(C)[C@H]([C@H](OC(=O)c3ccccc3)[C@]3(O)C[C@H](OC(=O)[C@H](O)[C@@H](NC(=O)c4ccccc4)c4ccccc4)C(C)=C1C3(C)C)[C@]1(OC(C)=O)CO[C@@H]1C[C@@H]2O [Paclitaxel]	7.70	similar	–	–	5.96	5.07	–	–	8.15	6.52
9.00	8.30	CC[C@]1(O)C[C@@H]2CN(CCc3c([nH]c4ccccc34)[C@@](C(=O)OC)(c3cc4c(cc3OC)N(C)[C@H]3[C@@](O)(C(=O)OC)[C@H](OC(C)=O)[C@]5(CC)C=CCN6CC[C@]43[C@@H]65)C2)C1 [Vinblastine]	–	less	–	–	–	6.14	–	–	6.70	–
